Experiments:
PAO1-L mCTX::PpqsA-lux = experiment: PpqsA-lux bioreporter assay, strain PAO1-L; format: cell-based, Pseudomonas aeruginosa; conditions: Pseudomonas aeruginosa, PAO1, read-out: IC50 PAO1-L
Description: In silico virtual screening was performed on the PqsR ligand binding domain (LBD) crystal structure [PDB: 4JVI; (Ilangovan et al., [2013])] using the University of Nottingham Managed Chemical Compound Collection (MCCC) containing 85,061 compounds. Molecular docking was performed using both the OpenEye docking (OpenEye Scientific Software Inc. (Hawkins et al., [2007]) and Schrödinger Suite for molecular modeling (Friesner et al., [2004]; Halgren et al., [2004]). A cut off value of the docking score function was set to -9.0 and the resulting high scoring compounds were further examined (Friesner et al., [2004]; Halgren et al., [2004]). This gave a library of around 500 diverse molecules that were evaluated using in vitro screening in a P. aeruginosa PAO1-L mCTX::PPqsA-lux reporter assay (Diggle et al., [2011]).
To inform the structural variation of 7, crystal structures with the endogenous ligand [4-hydroxy-2-heptylquinoline (NHQ)] and the inhibitor M64 were used (Ilangovan et al., [2013]; Kitao et al., [2018]). The PqsR LBD is dominated by lipophilic interactions, therefore the current SAR exploration mainly focused on varying the aromatic tail substituents and examining the effect of 8-position substitution. The rationale for these modifications was primarily based on molecular docking studies that provided insights into the mode of binding of 7 and approaches intended to improve potency. The substituent at the para- position of the aromatic ring appeared to be crucial for biological activity due to the vital π-π stacking interaction of this group with Tyr^258. […] These strains emit light upon activation of PqsR by the endogenous production of these signal molecules. […] The results of the SAR in this assay highlight the importance of testing any prospective anti-virulence strategy on multiple genetically distinct P. aeruginosa strains as a means to reduce the chance of failure at both pre-clinical and clinical stages (Freschi et al., [2015]).
(§1) PAO1-L Wild type PAO1, Lausanne subline. B.
PAO1-L mCTX::PpqsA- PAO1-L with chromosomal mini-CTX::PpqsA-lux (Soukarieh lux insertion; TcR et al., 2018) […]
mini-CTX::PpqsA-lux R6K-based mini-CTX suicide plasmid for the (Diggle et chromosomal insertion of a PpqsA-lux al., 2007) transcriptional reporter fusion; TcR
Biosensor reporter assay:
Strains PA14 mCTX::PpqsA-lux and PAO1-L mCTX::PpqsA-lux were constructed using plasmid mini-CTX::PpqsA-lux as previously described (Diggle et al., 2007) and the assay was performed according to published procedures (Fletcher et al., 2007). For screening, the compounds were tested at 10 µM concentration which was prepared from 10 mM stock in DMSO. […]

PAO1-L = experiment: Pyocyanin quantification, PAO1-L; format: cell-based, Pseudomonas aeruginosa; conditions: compound at 3 x IC50, 16 h, compared with the control
From the text: Pyocyanin is an important virulence factor for P. aeruginosa infections and in particular respiratory and urinary tract infections. Pyocyanin is a redox-active phenazine the production of which is regulated via PqsR and PqsE (Hall et al., [2016]; Rampioni et al., [2016]; Higgins et al., [2018]). Therefore, pyocyanin production serves as an indirect readout of the activity of the pqs QS system. […] Compound 40 reduced pyocyanin production by over 80% in both strains in agreement with bioreporter assay results.
Figure 4 Pyocyanin production by Pseudomonas aeruginosa after treatment with pqs inhibitors 8, 14, 23, 34, 25, 26, and 40. Quantification of pyocyanin production after inhibitor treatment at 3 × IC50 for both PAO1-L and PA14. The graph represents the average of three independent experiments carried out in triplicate (n = 9).
as §1
PAO1-L mCTX::PpqsA- PAO1-L with chromosomal mini-CTX::PpqsA-lux (Soukarieh lux insertion; TcR et al., 2018)
PA14 Wild type UCBPP-PA14 (Rahme et
PA14 mCTX::PpqsA-lux PA14 with chromosomal mini-CTX::PpqsA-lux (Soukarieh insertion; TcR et al., 2018) […]
Pyocyanin quantification: […]
Pyocyanin pigment was extracted into chloroform by mixing 7.5 mL of supernatant with 4.5 mL of chloroform. Pyocyanin w as further extracted into 1.5 mL of 0.2 M HCL which gave a pink/red solution and the absorbance was measured at 520 nm.

## Cn1c2ccccc2c2nnc(SCC(=O)Nc3ccc(Oc4ccccn4)cc3)nc21 [Compound 40, 2-((5-Methyl-5H-[1,2,4]triazino[5,6-b]indol-3-yl)thio)-N-(4-(pyridin-2-yloxy)phenyl)acetamide]
PAO1-L mCTX::PpqsA-lux
  IC50: 250 ± 120 nM
PAO1-L
  inhibition of pyocyanin production: over 80%
